Format in all cases: in vivo
The subject of series [1] is Beet Armyworm (Spodoptera exigua) ("BAW"). Nature of the series: Bioassay on beet armyworm (BAW), 128-well diet tray assay. To be noted: for pest or weed control at 50 µg/cm2: Table ABC (FB), activity rating class, read-out: BAW (Biological Results, Insect species); for mortality at 50 µg/cm2: 168 h, 50 μg/cm^2 on artificial diet, second instar BAW larvae, 25° C., five to seven days, average of eight wells, read-out: BAW % Control (or Mortality) rating. Put shortly:
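Percent mortality, averaged across eight wells, was read after five to seven days at 25° C. under 14:10 light-dark. Each well held one to five second-instar larvae on artificial diet that had been treated with 50 μg/cm^2 compound in 90:10 acetone-water and dried.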

In series [2] the test system is Cabbage Looper (Trichoplusia ni) ("CL"). Nature of the series: Bioassay on cabbage looper (CL), 128-well diet tray assay. To be noted: for pest or weed control at 50 µg/cm2: Table ABC (FB), activity rating class, read-out: CL (Biological Results, Insect species); for mortality at 50 µg/cm2: 168 h, 50 μg/cm^2 on artificial diet, second instar CL larvae, 25° C., five to seven days, average of eight wells, read-out: CL % Control (or Mortality) rating. The procedure, abridged: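 Percent mortality, averaged across eight replicate wells, was read after five to seven days at 25 °C under a 14:10 photoperiod. Each well held one to five second-instar T. ni on diet carrying a dried 50 μg/cm^2 dose applied in acetone-water 90:10.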

The test system of series [3] is Yellow Fever Mosquito "YFM" (Aedes aegypti). To be noted: for YFM (Biological Results, Insect species): Table ABC (FB), activity rating class; for YFM % Control (or Mortality) rating: about 1 day-old larvae, 96-well plate, room temperature, 3 days. Here is the method: Certain molecules disclosed in this document were tested against YFM using procedures described in the following paragraph. In the reporting of the results, the “YFM Rating Table” was used (See Table Section).
Master plates containing 400 μg of a molecule dissolved in 100 μL of dimethyl sulfoxide (DMSO) (equivalent to a 4000 ppm solution) are used. A master plate of assembled molecules contains 15 μL per well. To this plate, 135 μL of a 90:10 wateracetone mixture is added to each well. A robot (Biomek® NXP Laboratory Automation Workstation) is programmed to dispense 15 μL aspirations from the master plate into an empty 96-well shallow plate (“daughter” plate). There are 6 reps (“daughter” plates) created per master. The created daughter plates are then immediately infested with YFM larvae.
The day before plates are to be treated, mosquito eggs are placed in Millipore water containing liver powder to begin hatching (4 g. into 400 mL). After the daughter plates are created using the robot, they are infested with 220 μL of the liver powder/larval mosquito mixture (about 1 day-old larvae). After plates are infested with mosquito larvae, a non-evaporative lid is used to cover the plate to reduce drying. Plates are held at room temperature for 3 days prior to grading. After 3 days, each well is observed and scored based on mortality.

Take `CCc1cc(C)ccc1N1/C(=N/C(=O)NCCc2ccc(-c3ncn(-c4ccc(OC(F)(F)F)cc4)n3)cc2)SCC1C` (stereo not drawn) [FB56, (Z)-1-(3-(2-ethyl-4-methylphenyl)-4-methylthiazolidin-2-ylidene)-3-(4-(1-(4-(trifluoromethoxy)phenyl)-1H-1,2,4-triazol-3-yl)phenethyl)urea]: the pest or weed control at 50 µg/cm2 in series [1] and in series [2] was 50 to 100% throughout. Besides, in series [3], the “YFM (Biological Results, Insect species)” value is given as “A (80-100)”.

Turning to `CC(C)c1cc(F)ccc1N1/C(=N/C(=O)NCCc2ccc(-c3ncn(-c4ccc(OC(F)(F)F)cc4)n3)cc2)SCC1C` (stereo not drawn) [FB57], the pest or weed control at 50 µg/cm2 in series [1] and in series [2] was 50 to 100% in each case. Moreover, in series [3], the “YFM (Biological Results, Insect species)” value is given as “A (80-100)”.

For the compound `COc1ccc(N2/C(=N/C(=O)NCCc3ccc(-c4ncn(-c5ccc(OC(F)(F)F)cc5)n4)cc3)SCC2C)c(C)c1` (stereo not drawn) [FB58, (Z)-1-(3-(4-methoxy-2-methylphenyl)-4-methylthiazolidin-2-ylidene)-3-(4-(1-(4-(trifluoromethoxy)phenyl)-1H-1,2,4-triazol-3-yl)phenethyl)urea], the pest or weed control at 50 µg/cm2 in series [1] and in series [2] was 50 to 100% throughout. The “YFM (Biological Results, Insect species)” value in series [3] is recorded as “A (80-100)”.

For the compound `Cc1cccc(C)c1N1/C(=N/C(=O)NCCc2ccc(-c3ncn(-c4ccc(OC(F)(F)F)cc4)n3)cc2)SCC1C` (stereo not drawn) [FB59, (Z)-1-(3-(2,6-dimethylphenyl)-4-methylthiazolidin-2-ylidene)-3-(4-(1-(4-(trifluoromethoxy)phenyl)-1H-1,2,4-triazol-3-yl)phenethyl)urea], the pest or weed control at 50 µg/cm2 in series [1] and in series [2] was 50 to 100% throughout. The “YFM (Biological Results, Insect species)” value in series [3] is “A (80-100)”.

Consider `Cc1ccc(N2/C(=N/C(=O)NCCc3ccc(-c4ncn(-c5ccc(OC(F)(F)F)cc5)n4)cc3)SCC2C)c(C(C)C)c1` (stereo not drawn) [FB60, (Z)-1-(3-(2-isopropyl-4-methylphenyl)-4-methylthiazolidin-2-ylidene)-3-(4-(1-(4-(trifluoromethoxy)phenyl)-1H-1,2,4-triazol-3-yl)phenethyl)urea], for which the pest or weed control at 50 µg/cm2 in series [1] and in series [2] was 50 to 100% throughout. In addition, the “YFM (Biological Results, Insect species)” value in series [3] is listed as “A (80-100)”.

Regarding `C=CCN(CCc1ccc(-c2ncn(-c3ccc(OC(F)(F)F)cc3)n2)cc1)C(=O)/N=C1\SCC(=O)N1c1cc(C)ccc1C(C)C` [FB61], the pest or weed control at 50 µg/cm2 in series [1] and in series [2] was 50 to 100% throughout. Moreover, the “YFM (Biological Results, Insect species)” value in series [3] was “A (80-100)”.

For the compound `Cc1ccc(C(C)C)c(N2C(=O)CS/C2=N\C(=O)N(CCc2ccc(-c3ncn(-c4ccc(OC(F)(F)F)cc4)n3)cc2)CC2CC2)c1` [FB62, (Z)-1-(cyclopropylmethyl)-3-(3-(2-isopropyl-5-methylphenyl)-4-oxothiazolidin-2-ylidene)-1-(4-(1-(4-(trifluoromethoxy)phenyl)-1H-1,2,4-triazol-3-yl)phenethyl)urea], the pest or weed control at 50 µg/cm2 in series [1] and in series [2] was 50 to 100% in each case. Further, the “YFM (Biological Results, Insect species)” value in series [3] is given as “A (80-100)”.

In the case of `Cc1ccc(C(C)C)c(N2C(=O)CS/C2=N\C(=O)NC2(Cc3ccc(-c4ncn(-c5ccc(OC(F)(F)F)cc5)n4)cc3)CC2)c1` [FB63, (Z)-1-(3-(2-isopropyl-5-methylphenyl)-4-oxothiazolidin-2-ylidene)-3-(1-(4-(1-(4-(trifluoromethoxy)phenyl)-1H-1,2,4-triazol-3-yl)benzyl)cyclopropyl)urea], the pest or weed control at 50 µg/cm2 in series [1] and in series [2] was 50 to 100% each time. Moreover, the “YFM (Biological Results, Insect species)” value in series [3] was “A (80-100)”.

`CS/C(=N\C(=O)NCCc1ccc(-c2ncn(-c3ccc(OC(F)(F)F)cc3)n2)cc1)Nc1cc(C)ccc1C(C)C` [FB65, (Z)-methyl N-(2-isopropyl-5-methylphenyl)-N′-((4-(1-(4-(trifluoromethoxy)phenyl)-1H-1,2,4-triazol-3-yl)phenethyl)carbamoyl)carbamimidothioate]: the pest or weed control at 50 µg/cm2 in series [1] and in series [2] was 50 to 100% in each case. The “YFM (Biological Results, Insect species)” value in series [3] is listed as “A (80-100)”.

For the compound `Cc1ccc(C(C)C)c(N2/C(=N/C(=O)NCCc3ccc(-c4ncn(-c5ccc(OC(F)(F)F)cc5)n4)cc3)SCC2(C)O)c1` (stereo not drawn) [FB67, (Z)-1-(4-hydroxy-3-(2-isopropyl-5-methylphenyl)-4-methylthiazolidin-2-ylidene)-3-(4-(1-(4-(trifluoromethoxy)phenyl)-1H-1,2,4-triazol-3-yl)phenethyl)urea], the pest or weed control at 50 µg/cm2 in series [1] and in series [2] was 50 to 100% in each case. Also, the “YFM (Biological Results, Insect species)” value in series [3] is listed as “A (80-100)”.

As to `Cc1ccc(C(C)C)c(N2C(=O)CS/C2=N\C(=O)NCC(Br)c2ccc(-c3ncn(-c4ccc(OC(F)(F)F)cc4)n3)cc2)c1` (stereo not drawn) [FB71, (Z)-1-(2-bromo-2-(4-(1-(4-(trifluoromethoxy)phenyl)-1H-1,2,4-triazol-3-yl)phenyl)ethyl)-3-(3-(2-isopropyl-5-methylphenyl)-4-oxothiazolidin-2-ylidene)urea], the pest or weed control at 50 µg/cm2 in series [1] and in series [2] was 50 to 100% in each case. For the same compound, the “YFM (Biological Results, Insect species)” value in series [3] is recorded as “A (80-100)”.

With `Cc1ccc(N2C(=O)CS/C2=N\C(=O)NCCc2ccc(-c3ncn(-c4ccc(OC(F)(F)F)cc4)n3)cc2)c(C(C)C)c1` [P26, (Z)-1-(3-(2-isopropyl-4-methylphenyl)-4-oxothiazolidin-2-ylidene)-3-(4-(1-(4-(trifluoromethoxy)phenyl)-1H-1,2,4-triazol-3-yl)phenethyl)urea], the mortality at 50 µg/cm2 in series [1] and in series [2] was 50 to 100% throughout. Also, the “YFM % Control (or Mortality) rating” value in series [3] is recorded as “A (80-100)”.

`Cc1cccc(N2C(=O)CS/C2=N\C(=O)NCCc2ccc(-c3ncn(-c4ccc(OC(F)(F)F)cc4)n3)cc2)c1C(C)C` [P27, (Z)-1-(3-(2-isopropyl-3-methylphenyl)-4-oxothiazolidin-2-ylidene)-3-(4-(1-(4-(trifluoromethoxy)phenyl)-1H-1,2,4-triazol-3-yl)phenethyl)urea]: the mortality at 50 µg/cm2 in series [1] and in series [2] was 50 to 100% each time. For the same compound, the “YFM % Control (or Mortality) rating” value in series [3] is “A (80-100)”.

As for `CCCc1ccc(C)cc1N1C(=O)CS/C1=N\C(=O)NCCc1ccc(-c2ncn(-c3ccc(OC(F)(F)F)cc3)n2)cc1` [P29, (Z)-1-(3-(5-methyl-2-propylphenyl)-4-oxothiazolidin-2-ylidene)-3-(4-(1-(4-(trifluoromethoxy)phenyl)-1H-1,2,4-triazol-3-yl)phenethyl)urea], the mortality at 50 µg/cm2 in series [1] and in series [2] was 50 to 100% each time. The “YFM % Control (or Mortality) rating” value in series [3] is on record as “A (80-100)”.

As for `CC(C)(C)c1ccccc1N1C(=O)CS/C1=N\C(=O)NCCc1ccc(-c2ncn(-c3ccc(OC(F)(F)F)cc3)n2)cc1` [P30, (Z)-1-(3-(2-(tert-butyl)phenyl)-4-oxothiazolidin-2-ylidene)-3-(4-(1-(4-(trifluoromethoxy)phenyl)-1H-1,2,4-triazol-3-yl)phenethyl)urea], the mortality at 50 µg/cm2 in series [1] and in series [2] was 50 to 100% each time. Besides, the “YFM % Control (or Mortality) rating” value in series [3] is on record as “A (80-100)”.

For the compound `CCc1cc(C)ccc1N1C(=O)CS/C1=N\C(=O)NCCc1ccc(-c2ncn(-c3ccc(OC(F)(F)F)cc3)n2)cc1` [P31, (Z)-1-(3-(2-ethyl-4-methylphenyl)-4-oxothiazolidin-2-ylidene)-3-(4-(1-(4-(trifluoromethoxy)phenyl)-1H-1,2,4-triazol-3-yl)phenethyl)urea], the mortality at 50 µg/cm2 in series [1] and in series [2] was 50 to 100% in each case. In addition, the “YFM % Control (or Mortality) rating” value in series [3] is “A (80-100)”.

For `CC(Cc1ccc(-c2ncn(-c3ccc(OC(F)(F)F)cc3)n2)cc1)NC(=O)/N=C1\SCC(=O)N1c1ccc(F)cc1C(C)C` (stereo not drawn) [P33, (Z)-1-(3-(4-fluoro-2-isopropylphenyl)-4-oxothiazolidin-2-ylidene)-3-(1-(4-(1-(4-(trifluoromethoxy)phenyl)-1H-1,2,4-triazol-3-yl)phenyl)propan-2-yl)urea], the mortality at 50 µg/cm2 in series [1] and in series [2] was 50 to 100% throughout. In addition, in series [3], the “YFM % Control (or Mortality) rating” value is reported as “A (80-100)”.

These data come from US9783532B2, “Molecules having certain pesticidal utilities, and intermediates, compositions, and processes related thereto” (Dow AgroSciences LLC, priority 2013, dated 2017).
